{"source": "patent US12012412B2", "about": "“Solid forms of pyrazolo[3,4-d]pyrimidine compounds” (Pfizer Inc., priority 2021, dated 2024)", "type_in_all_cases": "physicochemical", "key": {"[1]": {"assay": "True density of Solid Form A", "conditions": "lots of Solid Form A; A2 and A9 unmilled, A3 and A6/A7 milled"}, "[2]": {"assay": "Mechanical properties of batches of Solid Form A", "conditions": "lots of Solid Form A; A2 and A9 unmilled, A3 and A6/A7 milled"}, "[3]": {"assay": "Particle size of batches of Solid Form A", "conditions": "batches of Solid Form A, milled or unmilled per batch", "excerpt": "Primary particles from below 100 μm to around 500 μm in size, with soft agglomerates up to several millimeters, were observed. The D[4,3] of this material was 195 μm. This material was subsequently milled, to give far fewer large particles and an overall much smaller average primary particle size, giving a D[4,3] of 49.5 μm. See Table 8 for a comparison of particle size properties of various batches."}, "[4]": {"assay": "Solubility of Solid Form A and amorphous Compound X in various solvents at room temperature"}}}
{"smiles": "CC1CN(Cc2ncccn2)CC1c1nc2c(cnn2C2CCOCC2)c(=O)[nH]1", "note": "(centres unmarked) [A6/A7]", "values": [{"measurement": "True density (g/cm3), Value", "setting": "[1]", "value": 1.29, "unit": "g/cm3"}, {"measurement": "Brittle fracture index, Rating", "setting": "[2]", "value": "Low"}, {"measurement": "Brittle fracture index, Value", "setting": "[2]", "value": 0.022}, {"measurement": "Brittle/viscoelastic bonding index (x105), Value", "setting": "[2]", "value": 5.3}, {"measurement": "Brittle/viscoelastic bonding index, Rating", "setting": "[2]", "value": "Poor"}, {"measurement": "Compression stress (MPa), Value", "setting": "[2]", "value": 56.3, "unit": "MPa"}, {"measurement": "Compression stress, Rating", "setting": "[2]", "value": "Moderate"}, {"measurement": "Compromised Tensile strength (MPa), Value", "setting": "[2]", "value": 0.393, "unit": "MPa"}, {"measurement": "Dynamic indentation hardness (MPa), Value", "setting": "[2]", "value": 41.6, "unit": "MPa"}, {"measurement": "Dynamic indentation hardness [ductility rating], Rating", "setting": "[2]", "value": "Very high"}, {"measurement": "Solid fraction, Value", "setting": "[2]", "value": 0.85}, {"measurement": "Tensile strength (MPa), Value", "setting": "[2]", "value": 0.41, "unit": "MPa"}, {"measurement": "Tensile strength, Rating", "setting": "[2]", "value": "Low"}]}
{"smiles": "CC1CN(Cc2ncccn2)CC1c1nc2c(cnn2C2CCOCC2)c(=O)[nH]1", "note": "(centres unmarked) [A10]", "values": [{"measurement": "Particle size D[4, 3]", "setting": "[3]", "value": 49.5, "unit": "μm"}, {"measurement": "Particle size D[v, 0.1]", "setting": "[3]", "value": 3.29, "unit": "µm"}, {"measurement": "Particle size D[v, 0.9]", "setting": "[3]", "value": 129, "unit": "µm"}]}
{"smiles": "CC1CN(Cc2ncccn2)CC1c1nc2c(cnn2C2CCOCC2)c(=O)[nH]1", "note": "(centres unmarked) [A4]", "values": [{"measurement": "Particle size D[4, 3]", "setting": "[3]", "value": 24.1, "unit": "μm"}, {"measurement": "Particle size D[v, 0.1]", "setting": "[3]", "value": 4.39, "unit": "µm"}, {"measurement": "Particle size D[v, 0.9]", "setting": "[3]", "value": 52.5, "unit": "µm"}]}
{"smiles": "CC1CN(Cc2ncccn2)CC1c1nc2c(cnn2C2CCOCC2)c(=O)[nH]1", "note": "(centres unmarked) [A8]", "values": [{"measurement": "Particle size D[4, 3]", "setting": "[3]", "value": 48.6, "unit": "μm"}, {"measurement": "Particle size D[v, 0.1]", "setting": "[3]", "value": 3.96, "unit": "µm"}, {"measurement": "Particle size D[v, 0.9]", "setting": "[3]", "value": 118, "unit": "µm"}]}
{"smiles": "CC1CN(Cc2ncccn2)CC1c1nc2c(cnn2C2CCOCC2)c(=O)[nH]1", "note": "(centres unmarked) [A6]", "values": [{"measurement": "Particle size D[4, 3]", "setting": "[3]", "value": 78.6, "unit": "μm"}, {"measurement": "Particle size D[v, 0.1]", "setting": "[3]", "value": 5.89, "unit": "µm"}, {"measurement": "Particle size D[v, 0.9]", "setting": "[3]", "value": 179, "unit": "µm"}, {"measurement": "Particle size D[4, 3]", "setting": "[3]; listed as A7", "value": 85.1, "unit": "μm"}, {"measurement": "Particle size D[v, 0.1]", "setting": "[3]; listed as A7", "value": 6.17, "unit": "µm"}, {"measurement": "Particle size D[v, 0.9]", "setting": "[3]; listed as A7", "value": 191, "unit": "µm"}]}
{"smiles": "CC1CN(Cc2ncccn2)CC1c1nc2c(cnn2C2CCOCC2)c(=O)[nH]1", "note": "(centres unmarked) [A5]", "values": [{"measurement": "Particle size D[4, 3]", "setting": "[3]", "value": 89.2, "unit": "μm"}, {"measurement": "Particle size D[v, 0.1]", "setting": "[3]", "value": 6.86, "unit": "µm"}, {"measurement": "Particle size D[v, 0.9]", "setting": "[3]", "value": 197, "unit": "µm"}]}
{"smiles": "C[C@@H]1CN(Cc2ncccn2)C[C@H]1c1nc2c(cnn2C2CCOCC2)c(=O)[nH]1", "note": "[amorphous Compound X, 6-((3S,4S)-4-methyl-1-(pyrimidin-2-ylmethyl)pyrrolidin-3-yl)-1-(tetrahydro-2H-pyran-4-yl)-1,5-dihydro-4H-pyrazolo[3,4-d]pyrimidin-4-one]", "values": [{"measurement": "Solubility (mg/ml)", "setting": "[4]; 1,2-Xylene", "value": 19.9, "unit": "mg/mL"}, {"measurement": "Solubility (mmol)", "setting": "[4]; 1,2-Xylene", "value": 50, "unit": "mmol"}, {"measurement": "Solubility (mmol)", "setting": "[4]; Acetone", "value": ">202", "unit": "mmol"}, {"measurement": "Solubility (mg/ml)", "setting": "[4]; Chloroform", "value": ">92.3", "unit": "mg/mL"}, {"measurement": "Solubility (mmol)", "setting": "[4]; Chloroform", "value": ">233", "unit": "mmol"}, {"measurement": "Solubility (mg/ml)", "setting": "[4]; Dioxane", "value": 27.9, "unit": "mg/mL"}, {"measurement": "Solubility (mmol)", "setting": "[4]; Dioxane", "value": 71, "unit": "mmol"}, {"measurement": "Solubility (mg/ml)", "setting": "[4]; EtOAc", "value": 20.6, "unit": "mg/mL"}, {"measurement": "Solubility (mmol)", "setting": "[4]; EtOAc", "value": 52, "unit": "mmol"}, {"measurement": "Solubility (mg/ml)", "setting": "[4]; EtOH", "value": ">98.6", "unit": "mg/mL"}, {"measurement": "Solubility (mmol)", "setting": "[4]; EtOH", "value": ">249", "unit": "mmol"}, {"measurement": "Solubility (mg/ml)", "setting": "[4]; Glyme (1,2-Dimethoxyethane)", "value": ">113.2", "unit": "mg/mL"}, {"measurement": "Solubility (mmol)", "setting": "[4]; Glyme (1,2-Dimethoxyethane)", "value": ">286", "unit": "mmol"}, {"measurement": "Solubility (mg/ml)", "setting": "[4]; H2O (Water)", "value": 64.8, "unit": "mg/mL"}, {"measurement": "Solubility (mmol)", "setting": "[4]; H2O (Water)", "value": 164, "unit": "mmol"}, {"measurement": "Solubility (mg/ml)", "setting": "[4]; H2O-EtOH (Water/EtOH)", "value": ">26.8", "unit": "mg/mL"}, {"measurement": "Solubility (mmol)", "setting": "[4]; H2O-EtOH (Water/EtOH)", "value": ">68", "unit": "mmol"}, {"measurement": "Solubility (mg/ml)", "setting": "[4]; H2O-MeCN (Water/MeCN)", "value": ">75.6", "unit": "mg/mL"}, {"measurement": "Solubility (mmol)", "setting": "[4]; H2O-MeCN (Water/MeCN)", "value": ">191", "unit": "mmol"}, {"measurement": "Solubility (mg/ml)", "setting": "[4]; H2O-MeOH (Water/MeOH)", "value": ">42.5", "unit": "mg/mL"}, {"measurement": "Solubility (mmol)", "setting": "[4]; H2O-MeOH (Water/MeOH)", "value": ">107", "unit": "mmol"}, {"measurement": "Solubility (mg/ml)", "setting": "[4]; H2O-acetone (Water/acetone)", "value": ">130.3", "unit": "mg/mL"}, {"measurement": "Solubility (mmol)", "setting": "[4]; H2O-acetone (Water/acetone)", "value": ">329", "unit": "mmol"}, {"measurement": "Solubility (mg/ml)", "setting": "[4]; Heptane", "value": 0.7, "unit": "mg/mL"}, {"measurement": "Solubility (mmol)", "setting": "[4]; Heptane", "value": 2, "unit": "mmol"}, {"measurement": "Solubility (mg/ml)", "setting": "[4]; IPA", "value": ">85.9", "unit": "mg/mL"}, {"measurement": "Solubility (mmol)", "setting": "[4]; IPA", "value": ">217", "unit": "mmol"}, {"measurement": "Solubility (mg/ml)", "setting": "[4]; MTBE", "value": 11.2, "unit": "mg/mL"}, {"measurement": "Solubility (mmol)", "setting": "[4]; MTBE", "value": 28, "unit": "mmol"}, {"measurement": "Solubility (mg/ml)", "setting": "[4]; MeCN", "value": ">117.3", "unit": "mg/mL"}, {"measurement": "Solubility (mmol)", "setting": "[4]; MeCN", "value": ">297", "unit": "mmol"}, {"measurement": "Solubility (mg/ml)", "setting": "[4]; MeOH", "value": ">90.2", "unit": "mg/mL"}, {"measurement": "Solubility (mmol)", "setting": "[4]; MeOH", "value": ">228", "unit": "mmol"}, {"measurement": "Solubility (mg/ml)", "setting": "[4]; Nitromethane", "value": ">70.2", "unit": "mg/mL"}, {"measurement": "Solubility (mmol)", "setting": "[4]; Nitromethane", "value": ">178", "unit": "mmol"}, {"measurement": "Solubility (mg/ml)", "setting": "[4]; THF", "value": 81.5, "unit": "mg/mL"}, {"measurement": "Solubility (mmol)", "setting": "[4]; THF", "value": 206, "unit": "mmol"}, {"measurement": "Solubility (mg/ml)", "setting": "[4]; Toluene", "value": 18.3, "unit": "mg/mL"}, {"measurement": "Solubility (mmol)", "setting": "[4]; Toluene", "value": 46, "unit": "mmol"}, {"measurement": "solubility", "setting": "[4]; acetone, organic solvent or mixture", "value": "> 79.7", "unit": "mg/mL"}]}
